Our source for the Ki values is BindingDB's records for doi:10.1021/jm9602571 (Dupont Pharmaceuticals, 1996).

The structures appear in SMILES notation.

The target in the test is T1, Dimer of Gag-Pol polyprotein [501-599] (Human immunodeficiency virus 1, UniProt P03367).
T1 construct: 501-599
The test can be described thus: Protease Inhibition Assay. Particulars: pH 5.5; 37 °C.

In the case of `Nc1cccc(CN2C(=O)N(Cc3cccc(N)c3)[C@H](Cc3ccccc3)[C@H](O)[C@@H](O)[C@H]2Cc2ccccc2)c1`, the inhibition constant Ki was 0.34 nM.

Turning to `O=C1N(CC2CCCC2)[C@H](Cc2ccccc2)[C@H](O)[C@@H](O)[C@@H](Cc2ccccc2)N1CC1CCCC1`, the Ki is 4 nM.
